Patent publication US10344039B2, “Macrocyclic spirocarbamate derivatives as factor XIa inhibitors, pharmaceutically acceptable compositions and their use” (MERCK SHARP & DOHME CORP., priority 2015, dated 2019)

Biological target: T1, purified human Factor XIa (Homo sapiens, UniProt P03951)
T1 construct: purified human Factor XIa; purchased Sekisui Diagnostics
Test: Factor XIa Assay
Assay type: biochemical
Settings: purified human Factor XIa 40 pM; substrate Z-Gly-Pro-Arg-AFC 100 μM; 50 mM HEPES pH 7.4; read-out: Hu FXIa Ki
Protocol: The effectiveness of a compound of the present invention as an inhibitor of Coagulation Factor XIa can be determined using a relevant purified serine protease, and an appropriate synthetic substrate. The rate of hydrolysis of the chromogenic or fluorogenic substrate by the relevant serine protease was measured both in the absence and presence of compounds of the present invention. Assays were conducted at room temperature or at 37° C. […] A decrease in the rate of fluorescence change in the presence of inhibitor is indicative of enzyme inhibition. Such methods are known to one skilled in the art. The results of this assay are expressed as the inhibitory constant, Ki.
Factor XIa determinations were made in 50 mM HEPES buffer at pH 7.4 containing 150 mM NaCl, 5 mM CaCl2, and 0.1% PEG 8000 (polyethylene glycol; JT Baker or Fisher Scientific). Determinations were made using purified human Factor XIa at a final concentration of 40 pM (Sekisui Diagnostics) and he synthetic substrate, Z-Gly-Pro-Arg-AFC, TFA salt (Sigma #C0980) at a concentration of 100 μM.
Activity assays were performed by diluting a stock solution of substrate at least tenfold to a final concentration ≤0.1 Km into a solution containing enzyme or enzyme equilibrated with inhibitor. Times required to achieve equilibration between enzyme and inhibitor were determined in control experiments. Initial velocities of product formation in the absence (Vo) or presence of inhibitor (Vi) were measured. Assuming competitive inhibition, and that unity is negligible compared Km/[S], [I]/e, and [I]/e (where [S], [I], and e respectively represent the total concentrations, of substrate, inhibitor and enzyme), the equilibrium constant (Ki) for dissociation of the inhibitor from the enzyme can be obtained from the dependence of Vo/Vi on [I] shown in the following equation. Vo/Vi=1+[I]/Ki
The activities shown by this assay indicate that the compounds of the invention may be therapeutically useful for treating or preventing various cardiovascular and/or cerebrovascular thromboembolic conditions in patients suffering from unstable angina, acute coronary syndrome, refractory angina, myocardial infarction, transient ischemic attacks, atrial fibrillation, stroke such as thrombotic stroke or embolic stroke, venous thrombosis, coronary and cerebral arterial thrombosis, cerebral and pulmonary embolism, atherosclerosis, deep vein thrombosis, disseminated intravascular coagulation, and reocclusion or restenosis of recanalized vessels. The Ki values measured for each of the example compounds of the invention using this assay are reported in the tables above (as “Hu FXIa Ki (nM)”).

T1 sequence (P03951 388-625 limits assumed): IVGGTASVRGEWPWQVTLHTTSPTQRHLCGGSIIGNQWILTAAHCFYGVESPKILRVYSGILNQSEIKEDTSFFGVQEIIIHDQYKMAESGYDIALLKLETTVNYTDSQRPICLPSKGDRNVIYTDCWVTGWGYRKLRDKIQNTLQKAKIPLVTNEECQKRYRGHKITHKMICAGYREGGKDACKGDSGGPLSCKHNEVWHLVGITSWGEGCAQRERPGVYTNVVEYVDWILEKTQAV
T1 sequence (P03951 19-387 partner limits assumed): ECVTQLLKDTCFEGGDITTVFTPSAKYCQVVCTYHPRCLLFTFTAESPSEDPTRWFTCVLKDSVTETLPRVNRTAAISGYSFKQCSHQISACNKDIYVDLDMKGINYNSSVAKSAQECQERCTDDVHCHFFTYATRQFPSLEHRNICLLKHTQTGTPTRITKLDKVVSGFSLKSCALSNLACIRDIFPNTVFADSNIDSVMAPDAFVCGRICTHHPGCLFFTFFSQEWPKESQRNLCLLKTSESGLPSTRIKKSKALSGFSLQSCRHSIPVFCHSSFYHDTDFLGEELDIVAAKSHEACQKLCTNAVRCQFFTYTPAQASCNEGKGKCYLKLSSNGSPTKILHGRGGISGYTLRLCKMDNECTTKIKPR

| Ki | Compound |
| --- | --- |
| 0.198 µM | COC(=O)Nc1ccc2c(c1)NC(=O)CCCCC[C@H](C(=O)N1CC[C@@]3(C1)OC(=O)Nc1ccc(Cl)c(F)c13)c1cc-2ccn1 [Example 18b, methyl ((S)-10-((R)-6-chloro-5-fluoro-2-oxo-1,2-dihydrospiro[benzo[d][1,3]oxazine-4,3′-pyrrolidine]-1′-carbonyl)-4-oxo-3-aza-1(4,2)-pyridina-2(1,2)-benzenacyclodecaphane-2^4-yl)carbamate] |
| 0.049 µM | COC(=O)Nc1ccc2c(c1)NC(=O)CCCCC[C@@H](C(=O)N1CCC[C@@]3(C1)OC(=O)Nc1ccc(Cl)c(F)c13)c1cc-2ccn1 [Example 19a, methyl ((R)-10-((R)-6-chloro-5-fluoro-2-oxo-1,2-dihydrospiro[benzo[d][1,3]oxazine-4,3′-piperidine]-1′-carbonyl)-4-oxo-3-aza-1(4,2)-pyridina-2(1,2)-benzenacyclodecaphane-2^4-yl)carbamate] |
| 0.211 µM | Nc1ccc2c(c1)NC(=O)CC/C=C\C[C@@H](C(=O)N1CCC[C@@]3(C1)OC(=O)Nc1ccc(Cl)c(F)c13)c1cc-2ccn1 [Example 20a, (R)-1′-((R,Z)-2^4-amino-4-oxo-3-aza-1(4,2)-pyridina-2(1,2)-benzenacyclodecaphan-7-ene-10-carbonyl)-6-chloro-5-fluorospiro[benzo[d][1,3]oxazine-4,3′-piperidin]-2(1H)-one] |
| > 0.875 µM | COC(=O)Nc1ccc2c(c1)NC(=O)CC/C=C/C[C@H](C(=O)N1CCC[C@@]3(C1)OC(=O)Nc1ccc(Cl)c(F)c13)c1cc-2ccn1 [Example 21b, methyl ((S,E)-10-((R)-6-chloro-5-fluoro-2-oxo-1,2-dihydrospiro[benzo[d][1,3]oxazine-4,3′-piperidine]-1′-carbonyl)-4-oxo-3-aza-1(4,2)-pyridina-2(1,2)-benzenacyclodecaphanen-2^4-yl)carbamate] |
| > 0.875 µM | COC(=O)Nc1ccc2c(c1)NC(=O)CCCCC(C(=O)N1CCC[C@@]3(C1)OC(=O)Nc1ccc(Cl)c(F)c13)c1cccc-2n1 (stereo partly drawn) [Example 24, methyl (9-((R)-6-chloro-5-fluoro-2-oxo-1,2-dihydrospiro[benzo[d][1,3]oxazine-4,3′-piperidine]-1′-carbonyl)-4-oxo-3-aza-1(2,6)-pyridina-2(1,2)-benzenacyclononaphane-2^4-yl)carbamate] |
| > 0.875 µM | COC(=O)Nc1ccc2c(c1)NC(=O)CCCC[C@H](C(=O)N1CC[C@@]3(C1)OC(=O)Nc1ccc(Cl)c(F)c13)c1ccnc-2c1 [Example 25b, methyl ((S)-9-((R)-6-chloro-5-fluoro-2-oxo-1,2-dihydrospiro[benzo[d][1,3]oxazine-4,3′-pyrrolidine]-1′-carbonyl)-4-oxo-3-aza-1(2,4)-pyridina-2(1,2)-benzenacyclononaphane-2^4-yl)carbamate] |
| 0.222 µM | COC(=O)Nc1ccc2c(c1)NC(=O)CCCC[C@@H](C(=O)N1CCC[C@@]3(C1)OC(=O)Nc1ccc(Cl)cc13)c1cc(F)cc-2c1 [Example 29a, methyl ((R)-9-((R)-6-chloro-2-oxo-1,2-dihydrospiro[benzo[d][1,3]oxazine-4,3′-piperidine]-1′-carbonyl)-1^5-fluoro-4-oxo-3-aza-1(1,3),2(1,2)-dibenzenacyclononaphane-2^4-yl)carbamate] |
| > 8.75 µM | COC(=O)Nc1ccc2c(c1)NC(=O)CCCC[C@H](C(=O)N1CCC[C@@]3(C1)OC(=O)Nc1ccc(Cl)cc13)c1cc(F)cc-2c1 [Example 29b, methyl ((S)-9-((R)-6-chloro-2-oxo-1,2-dihydrospiro[benzo[d][1,3]oxazine-4,3′-piperidine]-1′-carbonyl)-1^5-fluoro-4-oxo-3-aza-1(1,3),2(1,2)-dibenzenacyclononaphane-2^4-yl)carbamate] |

Second part, the compound before the results:

| Compound | Ki |
| --- | --- |
| COC(=O)Nc1ccc2c(c1)NC(=O)CCCCC[C@H](C(=O)N1CCC[C@@]3(C1)OC(=O)Nc1ccc(Cl)c(F)c13)c1cc-2ccn1 [Example 19b, methyl ((S)-10-((R)-6-chloro-5-fluoro-2-oxo-1,2-dihydrospiro[benzo[d][1,3]oxazine-4,3′-piperidine]-1′-carbonyl)-4-oxo-3-aza-1(4,2)-pyridina-2(1,2)-benzenacyclodecaphane-2^4-yl)carbamate] | > 0.875 µM |
| COC(=O)Nc1ccc2c(c1)NC(=O)CC/C=C\C[C@H](C(=O)N1CCC[C@@]3(C1)OC(=O)Nc1ccc(Cl)c(F)c13)c1cc-2ccn1 [Example 22b, methyl ((S,Z)-10-((R)-6-chloro-5-fluoro-2-oxo-1,2-dihydrospiro[benzo[d][1,3]oxazine-4,3′-piperidine]-1′-carbonyl)-4-oxo-3-aza-1(4,2)-pyridina-2(1,2)-benzenacyclodecaphanen-2^4-yl)carbamate] | > 0.875 µM |
| COC(=O)Nc1ccc2c(c1)NC(=O)CCCC[C@H](C(=O)N1CCC[C@@]3(C1)OC(=O)Nc1ccc(Cl)c(F)c13)c1cc(F)cc-2c1 [Example 30a, methyl ((S)-9-((R)-6-chloro-5-fluoro-2-oxo-1,2-dihydrospiro[benzo[d][1,3]oxazine-4,3′-piperidine]-1′-carbonyl)-1^5-fluoro-4-oxo-3-aza-1(1,3),2(1,2)-dibenzenacyclononaphane-2^4-yl)carbamate] | > 8.75 µM |
| COC(=O)Nc1ccc2c(c1)NC(C(=O)O)CCCCC(C(=O)N1CCC[C@@]3(C1)OC(=O)Nc1ccc(Cl)c(F)c13)c1nc-2c[nH]1 (stereo partly drawn) [Example 33, (Z)-9-((R)-6-chloro-5-fluoro-2-oxo-1,2-dihydrospiro[benzo[d][1,3]oxazine-4,3′-piperidine]-1′-carbonyl)-2^4-((methoxycarbonyl)amino)-1^1H-3-aza-1(4,2)-imidazola-2(1,2)-benzenacyclononaphane-4-carboxylic acid] | 0.136 µM |
| COC(=O)Nc1ccc2c(c1)NC(=O)[C@@H](C)CCC[C@H](NC(=O)N1CCC[C@@]3(C1)OC(=O)Nc1ccc(Cl)cc13)c1cc-2ccn1 [Example 39, methyl ((5S,9S)-9-((R)-6-chloro-2-oxo-1,2-dihydrospiro[benzo[d][1,3]oxazine-4,3′-piperidine]-1′-carboxamido)-5-methyl-4-oxo-3-aza-1(4,2)-pyridina-2(1,2)-benzenacyclononaphane-2^4-yl)carbamate] | 0.455 µM |
| COC(=O)Nc1ccc2c(c1)NC(=O)[C@H](C)CCC[C@H](NC(=O)N1CCC[C@@]3(C1)OC(=O)Nc1ccc(Cl)cc13)c1cc-2ccn1 [Example 40, methyl ((5R,9S)-9-((R)-6-chloro-2-oxo-1,2-dihydrospiro[benzo[d][1,3]oxazine-4,3′-piperidine]-1′-carboxamido)-5-methyl-4-oxo-3-aza-1(4,2)-pyridina-2(1,2)-benzenacyclononaphane-2^4-yl)carbamate] | > 5 µM |
| (R)-6-chloro-1′-((R,Z)-2^4-fluoro-4-oxo-11H-3-aza-1(4,2)-imidazola-2(1,2)-benzenacyclononaphane-9-carbonyl)spiro[benzo[d][1,3]oxazine-4,3′-pyrrolidin]-2(1H)-one [Example 5b] | 0.18 µM |
